Source: publication PMC6222789, “CF3-Substituted Mollugin 2-(4-Morpholinyl)-ethyl ester as a Potential Anti-inflammatory Agent with Improved Aqueous Solubility and Metabolic Stability” (Molecules : A Journal of Synthetic Chemistry and Natural …, 2018)

Tests used:
[1] = Metabolic stability, rat liver microsomes; format: in vitro ADME; conditions: 30 min, 1 μM
Experimental: (§1) Pooled human liver microsomes (150 donor) and dog, rat, mouse liver microsomes were obtained from BD Gentest Co. (Woburn, MA, USA). NADPH regeneration system was obtained from Promega. S-Mephenytoin, 4-hydroxymephenytoin, and 1’-hydroxymidazolam were purchased from Ultrafine Chemical Co. (Manchester, UK). All other chemicals and solvents were of the highest grade available. The metabolic stability assay was performed by incubation of human or selected animal liver microsomes (most often dog, rat and mouse), at 37 °C with a test compound at a final concentration of 1 μM, in the presence of 0.5 mg/mL microsomal protein and NADPH regeneration system, in a total volume of 100 μL of 100 mM phosphate buffer, pH 7.4. The incubation was started by the addition of NADPH regeneration system and terminated with 40 μL of ice-cold acetonitrile at 0 and 30 min. Precipitated proteins were removed by centrifugation at 10,000× g for 5 min at 4 °C. Aliquots of the supernatant were injected onto an LC-MS/MS system. Incubations terminated prior to the addition of NADPH regeneration system (time point 0 min) were used as standards, defined as 100%. Percent of the parent compound remaining was calculated by comparing peak area.

[2] = Metabolic stability, mouse liver microsomes; format: in vitro ADME; conditions: 30 min, 1 μM
Experimental: as §1

[3] = Plasma stability, human plasma; format: in vitro ADME; conditions: 37 °C, 1 μM
Experimental: (§2) The plasma stability assay was performed by incubation of human or rat plasma with a test compound in a final concentration of 1 μM for 120 min at 37 °C. The incubation was terminated by addition of 40 μL of ice-cold acetonitrile and vortexing for 5 min. The precipitated proteins were removed by centrifugation at 14,000× g for 5 min at 4 °C. Aliquots of the supernatant were injected onto a Shimadzu Nexera XR LC system. Percentages of the parent compound remaining were calculated by comparing peak areas using the Xcalibur software (version 1.6.1, Waltham, MA, USA).

[4] = Plasma stability, rat plasma; format: in vitro ADME; conditions: 2 h, 37 °C, 1 μM
Experimental: as §2

[5] = biological target: T1, CYP1A2 (Homo sapiens, UniProt P05177); assay: CYP inhibition assay, CYP1A2; format: in vitro ADME; conditions: for CYP Inhibition (% of Control) 1A2: 10 μM, CYP activity in presence of inhibitor as % of control, human liver microsomes
T1 construct: from tissue; host or cells: human liver microsomes
T1 sequence (P05177 1-516): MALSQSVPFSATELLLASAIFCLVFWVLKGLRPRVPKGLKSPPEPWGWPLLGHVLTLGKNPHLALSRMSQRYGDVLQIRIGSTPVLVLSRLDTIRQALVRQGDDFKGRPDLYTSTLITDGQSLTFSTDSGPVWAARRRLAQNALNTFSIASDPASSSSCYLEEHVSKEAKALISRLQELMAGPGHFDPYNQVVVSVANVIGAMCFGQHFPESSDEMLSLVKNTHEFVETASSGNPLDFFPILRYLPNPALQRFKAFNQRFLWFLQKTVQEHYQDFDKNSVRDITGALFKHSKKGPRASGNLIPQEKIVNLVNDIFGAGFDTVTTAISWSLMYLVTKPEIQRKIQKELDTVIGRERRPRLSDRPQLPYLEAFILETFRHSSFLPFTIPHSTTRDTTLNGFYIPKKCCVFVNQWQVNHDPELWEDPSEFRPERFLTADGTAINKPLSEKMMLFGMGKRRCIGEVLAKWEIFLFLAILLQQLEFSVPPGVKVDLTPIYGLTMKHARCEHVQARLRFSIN
Experimental: (§3) All incubations were performed in duplicate, and the mean values were used for analysis. The assays of phenacetin O-deethylase, tolbutamide 4-hydroxylase, S-mephenytoin 4-hydroxylase, dextromethorphan O-demethylase and midazolam 1′-hydroxylase activities were determined as probe activities for CYP1A2, CYP2C9, CYP2C19, CYP2D6 and CYP3A, respectively, using cocktail incubation and tandem mass spectrometry. Briefly, incubation reaction was performed with 0.25 mg/mL human liver microsomes in a final incubation volume of 100 μL. The incubation medium contained 100 mM phosphate buffer (pH 7.4) with probe substrates. The incubation mixture containing various inhibitors (10 μM) was pre-incubated for 5 min. After pre-incubation, an NADPH regenerating system was added. After incubation at 37 °C for 15 min, the reaction was stopped by placing the incubation tubes on ice and adding 40 μL of ice-cold acetonitrile. The incubation mixtures were then centrifuged at 10,000× g for 5 min at 4 °C. Aliquots of the supernatant were injected onto an LC-MS/MS system. The CYP-mediated activities in the presence of inhibitors were expressed as percentages of the corresponding control values.

[6] = tested on: CYP3A4; assay: CYP inhibition assay, CYP3A4; format: in vitro ADME, human; conditions: for CYP Inhibition (% of Control) 3A4: 10 μM, CYP activity in presence of inhibitor as % of control, human liver microsomes
Experimental: as §3

[7] = tested on: cell viability; assay: MTT cell viability assay; format: cell-based; conditions: 10 μM concentration
[8] = tested on: Serum Amyloid A (SAA); assay: Serum SAA level in DSS-induced colitis mouse model (ELISA); format: in vivo; conditions: for serum SAA level (mSS assay): 4% DSS-induced mouse model, compound 10 μM, ELISA; for effect on serum SAA level: murine model of DSS-induced colitis
Experimental: The level of Serum Amyloid A (SAA) was measured using a mouse SAA ELISA kit according to the manufacturer’s instructions (E-90SAA, Immunology Consultants Laboratory, Inc., Portland, OR, USA). All samples were assayed in duplicate. The concentrations of SAA were determined by comparison to serial dilutions of purified SAA calibrator.
Figure 2 Analysis of mouse serum amyloid A (SAA) level. Effect of 6d on the level of SAA in the 4% dextran sulfate sodium (DSS)-induced mouse model. The level of SAA in serum was determined by ELISA. The control mice received water + vehicle (water), and the treated groups received 4% DSS + vehicle or DSS with mesalazine (20 mM), 6d (10 μM), or 15c (10 μM). TEXT PRINTED IN THE PICTURE: vehecle: mSS assay (ng/ml): 252.08 | vehecle: mSS assay (ng/ml): 732.93 (4% DSS) | 2: mSS assay (ng/ml): 788.86 (4% DSS) | 6d: mSS assay (ng/ml): 295.77 (4% DSS) | 15c: mSS assay (ng/ml): 300.95 (4% DSS)

SMILES | Metabolic Stability (% Remain, 30 min) Rat [1] [% Remain] | Metabolic Stability (% Remain, 30 min) Mouse [2] [% Remain] | Plasma Stability (% Remain, 2 h) Human [3] [% Remain] | Plasma Stability (% Remain, 2 h) Rat [4] [% Remain] | CYP Inhibition (% of Control) 1A2 [5] | CYP Inhibition (% of Control) 3A4 [6] | effect on cell viability (MTT) [7] | serum SAA level (mSS assay) [8] [ng/mL] | effect on serum SAA level [8] | inhibition at 15 min, 10 μM ([5]; human, liver microsomes, pH 7.4, probe phenacetin (O-deethylation), at 10 μM drug concentration, read-out: % inhibition of CYP 1A2) [%] | inhibition at 15 min, 10 μM ([6]; human, liver microsomes, pH 7.4, probe midazolam (1′-hydroxylation), at 10 μM drug concentration, read-out: % inhibition of CYP 3A4) [%]
CC1(C)C=Cc2c(C(=O)OCCN3CCOCC3)c(O)c3ccccc3c2O1 [6d, 2-Morpholinoethyl 6-hydroxy-2,2-dimethyl-2H-benzo[h]chromene-5-carboxylate] | 20 | 10 | 97 | 97 | 58 % of Control | 91 % of Control | neither 6d nor 15c affects the cell viability | 295.77 | reduces serum SAA level | – | –
CC1(C)C=Cc2c(C(=O)OCCN3CCOCC3)c(O)c3cc(C(F)(F)F)ccc3c2O1 [15c, 2-Morpholinoethyl 6-hydroxy-2,2-dimethyl-8-(trifluoromethyl)-2H-benzo[h]chromene-5-carboxylate] | 52 | 45 | 100 | 51 | 57 % of Control | 90 % of Control | neither 6d nor 15c affects the cell viability | 300.95 | reduces serum SAA level | < 50 | < 50
